Reference: patent US11117947B2, “Double-acylated GLP-1 derivatives” (Novo Nordisk A/S, priority 2011, dated 2021)
Like-named read-outs stand apart in the source and are kept apart here. Numbered stars: 1 amine (or outer) side, 2 acyl side, 3 side chain; on linkers, the order of the positions; unused ones are H or OH. Square brackets hold non-standard residues; d marks the D form. Side chains are listed from the residue outwards. Peptide text beside a SMILES is read from it. * marks the point of attachment. Decanoyl(10-(4-HOOC-PhO)) = O=C(O)c1ccc(OCCCCCCCCCC(=O)*)cc1; d(γGlu) = O=C(O)[C@@H](CCC(=O)[*:2])N[*:1]; γGlu = O=C(O)[C@H](CCC(=O)[*:2])N[*:1]; C14 diacid = O=C(O)CCCCCCCCCCCCC(=O)*; AEEA = NCCOCCOCC(=O)O; Aib = CC(C)(N)C(=O)O

Experiments:
[1] = target: T1, human GLP-1 receptor (Homo sapiens, UniProt P43220); assay: In vitro potency: stimulation of cAMP formation (AlphaScreen cAMP Assay) in membranes expressing the human GLP-1 receptor; format: biochemical; details: membranes from BHK467-12A (tk-ts13) expressing the human GLP-1 receptor
T1 construct: expressed in transfected cells; membranes
Experimental: Purified plasma membranes from a stable transfected cell line, BHK467-12A (tk-ts13), expressing the human GLP-1 receptor were stimulated with the GLP-1 analogue or derivative in question, and the potency of cAMP production was measured using the AlphaScreen™ cAMP Assay Kit from Perkin Elmer Life Sciences. The basic principle of the AlphaScreen Assay is a competition between endogenous cAMP and exogenously added biotin-cAMP. The capture of cAMP is achieved by using a specific antibody conjugated to acceptor beads.
A stable transfected cell line and a high expressing clone were selected for screening. The cells were grown at 5% CO2 in DMEM, 5% FCS, 1% Pen/Strep (Penicillin/Streptomycin) and 0.5 mg/ml of the selection marker G418.
Cells at approximately 80% confluence were washed 2× with PBS and harvested with Versene (aqueous solution of the tetrasodium salt of ethylenediaminetetraacetic acid), centrifuged 5 min at 1000 rpm and the supernatant removed. The additional steps were all performed on ice. The cell pellet was homogenised by the Ultrathurax for 20-30 s in 10 ml of Buffer 1 (20 mM Na-HEPES, 10 mM EDTA, pH=7.4), centrifuged 15 min at 20,000 rpm and the pellet resuspended in 10 ml of Buffer 2 (20 mM Na-HEPES, 0.1 mM EDTA, pH=7.4). The suspension was homogenised for 20-30 s and centrifuged 15 min at 20,000 rpm. Suspension in Buffer 2, homogenisation and centrifugation was repeated once and the membranes were resuspended in Buffer 2. The protein concentration was determined and the membranes stored at −80° C. until use.
The final volume per well was 50 μl.
AlphaScreen cAMP Assay Kit from Perkin Elmer Life Sciences (cat. No: 6760625M); containing Anti-cAMP Acceptor beads (10 U/μl), Streptavidin Donor beads (10 U/μl) and Biotinylated-cAMP (133 U/μl).
cAMP standard (dilution factor in assay=5): cAMP Solution: 5 μL of a 5 mM cAMP-stock+495 μL AlphaScreen Buffer.
Membranes were prepared from hGLP-1/BHK 467-12A cells with a concentration of 6 μg/well corresponding to 0.6 mg/ml (the amount of membranes used pr. well may vary)
“No membranes”: Acceptor Beads (15 μg/ml final) in AlphaScreen buffer
“6 μg/well membranes”: membranes+Acceptor Beads (15 μg/ml final) in AlphaScreen buffer
An aliquot (10 μl) of “No membranes” was added to the cAMP standard (per well in duplicate wells) and the positive and negative controls
An aliquot (10 μl) of “6 μg/well membranes” was added to GLP-1 and analogues (per well in duplicate or triplicate wells)
Pos. Control: 10 μl “no membranes”+10 μl AlphaScreen Buffer
Neg. Control: 10 μl “no membranes”+10 μl cAMP Stock Solution (50 μM)
1. Make the AlphaScreen Buffer.
2. Dissolve and dilute the GLP-1/Analogues/cAMP standard in AlphaScreen Buffer.
4. Add the cAMP/GLP-1/Analogues to the plate: 10 μl per well.
5. Prepare membrane/Acceptor Beads solution and add this to the plates: 10 μl per well.
6. Add the Donor Beads: 30 μl per well.

[2] = target: T1, human GLP-1 receptor; assay: GLP-1 receptor binding: displacement of 125I-GLP-1 (SPA) at low and high albumin
In short: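 Membranes from hamster cells stably transfected with the receptor, with WGA SPA beads and 0.06 nM [^125I]-GLP-1(7-36)NH2, incubated 120 min at 30 °C with shaking.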

[3] = Estimate of oral bioavailability: gut injection in rat (caprate), exposure in plasma; format: in vivo; details: injection in jejunum, 1000 uM in 55 mg/ml sodium caprate, plasma concentration (pM) at 30 min divided by dosing solution concentration (μM), mean n=4
In short: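 Male Sprague Dawley rats (~240 g, n=4) received 100 μl of 1000 uM derivative in 55 mg/ml sodium caprate by catheter into proximal or mid jejunum. Tail-vein EDTA plasma was sampled up to 240 min. Peptide was quantified by two-antibody bead chemiluminescence immunoassay, giving mean concentration-time profiles (pmol/l).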

[4] = high albumin, 2.0% HSA, read-out: IC50/nM (high HSA)
[5] = low albumin, 0.001% HSA, read-out: IC50/nM (low HSA)

T1 sequence (P43220 24-463): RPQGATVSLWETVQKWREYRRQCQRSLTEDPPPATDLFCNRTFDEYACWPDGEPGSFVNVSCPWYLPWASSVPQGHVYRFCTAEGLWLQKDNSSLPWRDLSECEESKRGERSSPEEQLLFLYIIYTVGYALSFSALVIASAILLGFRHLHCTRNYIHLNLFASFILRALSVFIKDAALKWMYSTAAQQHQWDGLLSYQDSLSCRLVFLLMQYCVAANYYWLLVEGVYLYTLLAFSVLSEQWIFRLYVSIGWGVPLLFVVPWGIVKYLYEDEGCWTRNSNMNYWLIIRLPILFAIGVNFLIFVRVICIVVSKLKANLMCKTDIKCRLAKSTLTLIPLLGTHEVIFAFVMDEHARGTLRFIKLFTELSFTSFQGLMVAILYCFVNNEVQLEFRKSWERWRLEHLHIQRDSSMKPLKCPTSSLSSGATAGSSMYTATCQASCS

Ratio [(IC50/nM) high HSA]/[(IC50/nM) low HSA] ([2]; 2.0% HSA vs 0.001% HSA)	Compound	EC50 [1] [pM]	IC50 [2, 4] [nM]	IC50 [2, 5] [nM]	Dose-corrected exposure at 30 min [3]
	CC[C@H](C)[C@H](NC(=O)[C@H](Cc1ccccc1)NC(=O)[C@H](CCCCNC(=O)COCCOCCNC(=O)COCCOCCNC(=O)CC[C@H](NC(=O)CCCCCCCCCOc1ccc(C(=O)O)cc1)C(=O)O)NC(=O)[C@H](CCCNC(=N)N)NC(=O)[C@H](C)NC(=O)[C@H](CCCCNC(=O)COCCOCCNC(=O)COCCOCCNC(=O)CC[C@H](NC(=O)CCCCCCCCCOc1ccc(C(=O)O)cc1)C(=O)O)NC(=O)[C@H](CCC(N)=O)NC(=O)[C@H](CCC(=O)O)NC(=O)[C@H](CCC(=O)O)NC(=O)[C@H](CC(C)C)NC(=O)[C@H](Cc1ccc(O)cc1)NC(=O)[C@H](CO)NC(=O)[C@H](CO)NC(=O)[C@@H](NC(=O)[C@H](CC(=O)O)NC(=O)[C@H](CO)NC(=O)[C@@H](NC(=O)[C@H](Cc1ccccc1)NC(=O)[C@@H](NC(=O)CNC(=O)[C@H](CCC(=O)O)NC(=O)[C@H](C)NC(=O)[C@@H](N)Cc1c[nH]cn1)[C@@H](C)O)[C@@H](C)O)C(C)C)C(=O)N[C@@H](C)C(=O)N[C@@H](Cc1c[nH]cn1)C(=O)N[C@@H](CC(C)C)C(=O)N[C@H](C(=O)NCC(=O)O)C(C)C [Example 25, N^ε24-[2-[2-[2-[[2-[2-[2-[[(4S)-4-carboxy-4-[10-(4-carboxyphenoxy)decanoylamino]butanoyl]amino]ethoxy]ethoxy]acetyl]amino]ethoxy]ethoxy]acetyl], N^ε27-[2-[2-[2-[[2-[2-[2-[[(4S)-4-carboxy-4-[10-(4-carboxyphenoxy)decanoylamino]butanoyl]amino]ethoxy]ethoxy]acetyl]amino]ethoxy]ethoxy]acetyl]-[Glu^22,Lys^24,Arg^26,Lys^27,His^31,Gly^34]-GLP-1-(7-34)-peptide] (H-HAEGTFTSDVSSYLEEQK([AEEA-AEEA-γGlu-Decanoyl(10-(4-HOOC-PhO))])ARK([AEEA-AEEA-γGlu-Decanoyl(10-(4-HOOC-PhO))])FIAHLVG-OH; N-terminus and C-terminus assumed)	380			
92	CC[C@H](C)[C@H](NC(=O)[C@H](Cc1ccccc1)NC(=O)[C@H](CCCCNC(=O)COCCOCCNC(=O)COCCOCCNC(=O)CC[C@H](NC(=O)CCCCCCCCCCCCC(=O)O)C(=O)O)NC(=O)[C@H](CCCNC(=N)N)NC(=O)[C@@H](NC(=O)[C@H](CCCCNC(=O)COCCOCCNC(=O)COCCOCCNC(=O)CC[C@H](NC(=O)CCCCCCCCCCCCC(=O)O)C(=O)O)NC(=O)[C@H](CCC(N)=O)NC(=O)[C@H](CCC(=O)O)NC(=O)[C@H](CCC(=O)O)NC(=O)[C@H](CC(C)C)NC(=O)[C@H](Cc1ccc(O)cc1)NC(=O)[C@H](CO)NC(=O)[C@H](CO)NC(=O)[C@@H](NC(=O)[C@H](CC(=O)O)NC(=O)[C@H](CO)NC(=O)[C@@H](NC(=O)[C@H](Cc1ccccc1)NC(=O)[C@@H](NC(=O)CNC(=O)[C@H](CCC(=O)O)NC(=O)C(C)(C)NC(=O)[C@@H](N)Cc1c[nH]cn1)[C@@H](C)O)[C@@H](C)O)C(C)C)C(C)C)C(=O)N[C@@H](C)C(=O)N[C@@H](Cc1c[nH]cn1)C(=O)N[C@@H](CC(C)C)C(=O)N[C@H](C(=O)N[C@@H](CCC(N)=O)C(=O)NCC(=O)N[C@@H](CCCNC(=N)N)C(=O)NCC(=O)O)C(C)C [Example 29, N^ε24-[2-[2-[2-[[2-[2-[2-[[(4S)-4-carboxy-4-(13-carboxytridecanoylamino)butanoyl]amino]ethoxy]ethoxy]acetyl]amino]ethoxy]ethoxy]acetyl], N^ε27-[2-[2-[2-[[2-[2-[2-[[(4S)-4-carboxy-4-(13-carboxytridecanoylamino)butanoyl]amino]ethoxy]ethoxy]acetyl]amino]ethoxy]ethoxy]acetyl]-[Aib^8,Glu^22,Lys^24,Val^25,Arg^26,Lys^27,His^31,Gln^34]-GLP-1-(7-37)-peptide] (H-H[Aib]EGTFTSDVSSYLEEQK([AEEA-AEEA-γGlu-C14 diacid])VRK([AEEA-AEEA-γGlu-C14 diacid])FIAHLVQGRG-OH)	40	363	3.95	
	CC[C@H](C)[C@H](NC(=O)[C@H](Cc1ccccc1)NC(=O)[C@H](CCCCNC(=O)CC[C@H](NC(=O)COCCOCCNC(=O)COCCOCCNC(=O)CC[C@@H](NC(=O)CCCCCCCCCOc1ccc(C(=O)O)cc1)C(=O)O)C(=O)O)NC(=O)[C@H](CCCNC(=N)N)NC(=O)[C@@H](NC(=O)[C@H](C)NC(=O)[C@H](CCC(N)=O)NC(=O)CNC(=O)[C@H](CCC(=O)O)NC(=O)[C@H](CC(C)C)NC(=O)[C@H](Cc1ccc(O)cc1)NC(=O)[C@H](CO)NC(=O)[C@H](CO)NC(=O)[C@@H](NC(=O)[C@H](CC(=O)O)NC(=O)[C@H](CO)NC(=O)[C@@H](NC(=O)[C@H](Cc1ccccc1)NC(=O)[C@@H](NC(=O)CNC(=O)[C@H](CCC(=O)O)NC(=O)[C@H](C)NC(=O)[C@@H](N)Cc1c[nH]cn1)[C@@H](C)O)[C@@H](C)O)C(C)C)C(C)C)C(=O)N[C@@H](C)C(=O)N[C@@H](Cc1c[nH]c2ccccc12)C(=O)N[C@@H](CC(C)C)C(=O)N[C@H](C(=O)N[C@@H](CCC(N)=O)C(=O)NCC(=O)N[C@@H](CCCCNC(=O)CC[C@H](NC(=O)COCCOCCNC(=O)COCCOCCNC(=O)CC[C@@H](NC(=O)CCCCCCCCCOc1ccc(C(=O)O)cc1)C(=O)O)C(=O)O)C(=O)NCC(=O)O)C(C)C [Example 26] (H-HAEGTFTSDVSSYLEGQAVRK([γGlu-AEEA-AEEA-d(γGlu)-Decanoyl(10-(4-HOOC-PhO))])FIAWLVQGK([γGlu-AEEA-AEEA-d(γGlu)-Decanoyl(10-(4-HOOC-PhO))])G-OH; N-terminus and C-terminus assumed)	200		0.38	
	CC[C@H](C)[C@H](NC(=O)[C@H](Cc1ccccc1)NC(=O)[C@H](CCCCNC(=O)COCCOCCNC(=O)COCCOCCNC(=O)CC[C@H](NC(=O)CCCCCCCCCOc1ccc(C(=O)O)cc1)C(=O)O)NC(=O)[C@H](CCCNC(=N)N)NC(=O)[C@H](C)NC(=O)[C@H](C)NC(=O)[C@H](CCC(N)=O)NC(=O)[C@H](CCC(=O)O)NC(=O)[C@H](CCC(=O)O)NC(=O)[C@H](CC(C)C)NC(=O)[C@H](Cc1ccc(O)cc1)NC(=O)[C@H](CO)NC(=O)[C@H](CO)NC(=O)[C@@H](NC(=O)[C@H](CC(=O)O)NC(=O)[C@H](CO)NC(=O)[C@@H](NC(=O)[C@H](Cc1ccccc1)NC(=O)[C@@H](NC(=O)CNC(=O)[C@H](CCC(=O)O)NC(=O)[C@H](C)NC(=O)[C@@H](N)Cc1c[nH]cn1)[C@@H](C)O)[C@@H](C)O)C(C)C)C(=O)N[C@@H](C)C(=O)N[C@@H](Cc1c[nH]c2ccccc12)C(=O)N[C@@H](CC(C)C)C(=O)N[C@H](C(=O)N[C@@H](CCCNC(=N)N)C(=O)NCC(=O)N[C@@H](CCCCNC(=O)COCCOCCNC(=O)COCCOCCNC(=O)CC[C@H](NC(=O)CCCCCCCCCOc1ccc(C(=O)O)cc1)C(=O)O)C(=O)O)C(C)C [Example 3, N^ε27-[2-[2-[2-[[2-[2-[2-[[(4S)-4-carboxy-4-[10-(4-carboxyphenoxy)decanoylamino]butanoyl]amino]ethoxy]ethoxy]acetyl]amino]ethoxy]ethoxy]acetyl], N^ε36-[2-[2-[2-[[2-[2-[2-[[(4S)-4-carboxy-4-[10-(4-carboxyphenoxy)decanoylamino]butanoyl]amino]ethoxy]ethoxy]acetyl]amino]ethoxy]ethoxy]acetyl]-[Glu^22,Arg^26,Lys^27,Arg^34,Lys^36],des-Gly37-GLP-1-(7-36)-peptide] (H-HAEGTFTSDVSSYLEEQAARK([AEEA-AEEA-γGlu-Decanoyl(10-(4-HOOC-PhO))])FIAWLVRGK([AEEA-AEEA-γGlu-Decanoyl(10-(4-HOOC-PhO))])-OH; N-terminus and C-terminus assumed)		29		67
